Results on 44 molecules are retold here after US20050171358A1 (priority 2002, published 2005).

Assay [1] deals with Pyricularia oryzae. The assay is classed as in vivo. Particulars: 200 ppm spray on rice (Koshihikari, 3 leaf stage), inoculated next day; lesion numbers on third leaves after 7 days in green house, graded by Table 5.
Assay [2] has as its system Colletotrichum lagenarium. Particulars: 200 ppm spray on cucumber (3 leaf stage), inoculated next day; lesion numbers on first and second leaves after 7 days in green house, graded by Table 5.

Consider `COc1ccc(C(=O)NCc2cc(/C=C/C(C)C)no2)cc1`, for which the “Evaluation (effect for rice blast)” value in assay [1] is 4 (1˜5). In assay [2], the “Evaluation (effect for cucumber anthracnose)” value is on record as 4 (1˜5).

As to `O=C(NCc1cc(Cc2ccccc2)no1)OC1CCCCC1`, the “Evaluation (effect for rice blast)” value in assay [1] is recorded as 4 (1˜5).

Take `CC(C)c1cc(CNC(=O)Oc2ccccc2)on1` [I-4]: the “Evaluation (effect for rice blast)” value in assay [1] is given as 5 (0). Besides, the “Evaluation (effect for cucumber anthracnose)” value in assay [2] is listed as 5 (0).

Regarding `O=C(NCc1cc(C2CCCCC2)no1)Oc1ccccc1` [I-6, phenyl[(3-cyclohexyl-5-isoxazolyl)methyl]carbamate], in assay [1], the “Evaluation (effect for rice blast)” value is reported as 5 (0). The “Evaluation (effect for cucumber anthracnose)” value in assay [2] was 5 (0).

With `CC(C)Cc1cc(CNC(=O)Oc2ccccc2)on1` [I-8, phenyl [(3-isobutyl-5-isoxazolyl)methyl]carbamate], the “Evaluation (effect for rice blast)” value in assay [1] is 3 (6˜10). Moreover, in assay [2], the “Evaluation (effect for cucumber anthracnose)” value is 3 (6˜10).

Turning to `Cc1ccc(-c2cc(CNC(=O)Oc3ccccc3)on2)cc1` [I-25, phenyl{[3-(4-tolyl)-5-isoxazolyl)methyl]carbamate], the “Evaluation (effect for rice blast)” value in assay [1] is listed as 5 (0).

For the molecule `COc1ccc(-c2cc(CNC(=O)Oc3ccccc3)on2)cc1` [I-26, phenyl{[3-(4-methoxyphenyl)-5-isoxazolyl]methyl}carbamate], in assay [1], the “Evaluation (effect for rice blast)” value is recorded as 5 (0). The “Evaluation (effect for cucumber anthracnose)” value in assay [2] was 5 (0).

Regarding `O=C(NCc1cc(-c2ccc(F)cc2)no1)Oc1ccccc1` [I-27, phenyl{[3-(4-fluorophenyl)-5-isoxazolyl)methyl]carbamate], the “Evaluation (effect for rice blast)” value in assay [1] is 5 (0). The “Evaluation (effect for cucumber anthracnose)” value in assay [2] was 5 (0).

For `O=C(NCc1cc(-c2ccccc2Cl)no1)Oc1ccccc1` [I-28, phenyl{[3-(2-chlorophenyl)-5-isoxazolyl]methyl}carbamate], in assay [1], the “Evaluation (effect for rice blast)” value is recorded as 4 (1˜5). For the same molecule, the “Evaluation (effect for cucumber anthracnose)” value in assay [2] is 5 (0).

As to `O=C(NCc1cc(-c2cccc(Cl)c2)no1)Oc1ccccc1` [I-29, phenyl{[3-(3-chlorophenyl)-5-isoxazolyl)methyl]carbamate], the “Evaluation (effect for rice blast)” value in assay [1] is 5 (0). Moreover, in assay [2], the “Evaluation (effect for cucumber anthracnose)” value is 5 (0).

Turning to `O=C(NCc1cc(-c2ccc(Cl)cc2)no1)Oc1ccccc1` [I-30, phenyl{[3-(4-chlorophenyl)-5-isoxazolyl)methyl]carbamate], the “Evaluation (effect for rice blast)” value in assay [1] was 5 (0). Further, in assay [2], the “Evaluation (effect for cucumber anthracnose)” value is recorded as 5 (0).

Turning to `O=C(NCc1cc(-c2ccccn2)no1)Oc1ccccc1` [I-31, phenyl{[3-(2-pyrizyl)-5-isoxazolyl]methyl}carbamate], the “Evaluation (effect for rice blast)” value in assay [1] is given as 4 (1˜5).

As to `O=C(NCc1cc(-c2cccs2)no1)Oc1ccccc1` [I-32, phenyl{[3-(2-thienyl)-5-isoxazolyl)methyl]carbamate], the “Evaluation (effect for rice blast)” value in assay [1] is listed as 5 (0).

`O=C(NCc1cc(-c2ccco2)no1)Oc1ccccc1` [I-33, phenyl{[3-(2-furyl)-5-isoxazolyl)methyl]carbamate]: the “Evaluation (effect for rice blast)” value in assay [1] is 5 (0). Also, the “Evaluation (effect for cucumber anthracnose)” value in assay [2] was 5 (0).

As to `O=C(NCc1cc(Cc2ccccc2)no1)Oc1ccccc1` [I-38, phenyl[(3-benzyl-5-isoxazolyl)methyl]carbamate], in assay [1], the “Evaluation (effect for rice blast)” value is 5 (0). Besides, the “Evaluation (effect for cucumber anthracnose)” value in assay [2] is recorded as 5 (0).

In the case of `O=C(NCc1cc(-c2ccccc2)no1)OCc1ccccc1` [I-41, benzyl [(3-phenyl-5-isoxazolyl)methyl]carbamate], the “Evaluation (effect for rice blast)” value in assay [1] is recorded as 3 (6˜10). Also, the “Evaluation (effect for cucumber anthracnose)” value in assay [2] is on record as 4 (1˜5).

Regarding `CC(C)(NC(=O)NCc1cc(-c2ccccc2)no1)c1ccccc1` [I-45], the “Evaluation (effect for rice blast)” value in assay [1] is 4 (1˜5). In addition, in assay [2], the “Evaluation (effect for cucumber anthracnose)” value is reported as 4 (1˜5).

Take `CC(C)c1cc(CNC(=O)C(C)c2ccccc2)on1` (stereo not drawn) [I-47, N-[(3-isopropyl-5-isoxazolyl)methyl]-2-phenylpropanamide]: the “Evaluation (effect for rice blast)” value in assay [1] is listed as 4 (1˜5). For the same molecule, in assay [2], the “Evaluation (effect for cucumber anthracnose)” value is reported as 4 (1˜5).

Consider `O=C(Cc1ccccc1)NCc1cc(-c2ccccc2)no1` [I-48, N-[(3-phenyl-5-isoxazolyl)methyl]-2-phenylethanamide], for which the “Evaluation (effect for rice blast)” value in assay [1] was 4 (1˜5).

As to `O=C(NCc1cc(-c2ccccc2)no1)C(Cl)c1ccccc1` (stereo not drawn) [I-49, N-[(3-phenyl-5-isoxazolyl)methyl]-2-chloro-2-phenylethanamide], in assay [1], the “Evaluation (effect for rice blast)” value is listed as 3 (6˜10).

Turning to `CC(C)c1cc(CNC(=O)Cc2ccccc2)on1` [I-63, N-[(3-isopropyl-5-isoxazolyl)methyl]phenylacetamide], in assay [1], the “Evaluation (effect for rice blast)” value is listed as 2 (11˜20).

As to `CC(C)Cc1cc(CNC(=O)Cc2ccccc2)on1` [I-64, N-[(3-isobutyl-5-isoxazolyl)methyl]phenylacetamide], in assay [1], the “Evaluation (effect for rice blast)” value was 2 (11˜20). Moreover, in assay [2], the “Evaluation (effect for cucumber anthracnose)” value is recorded as 3 (6˜10).

Regarding `Cc1ccc(-c2cc(CNC(=O)Nc3ccccc3)on2)cc1` [II-2, 3-{[3-(4-tolyl)-5-isoxazolyl]methyl}-1-phenyl urea], the “Evaluation (effect for rice blast)” value in assay [1] is recorded as 5 (0).

In the case of `CC(C)c1cc(CNC(=O)Nc2ccccc2)on1` [II-3, 1-[(3-isopropyl-5-isoxazolyl)methyl]-3-phenylurea], in assay [1], the “Evaluation (effect for rice blast)” value was 3 (6˜10).

Regarding `O=C(NCc1cc(-c2ccccc2)no1)NC1CCCCC1` [II-7, 3-[(3-phenyl-5-isoxazolyl)methyl]-1-cyclohexyl urea], the “Evaluation (effect for rice blast)” value in assay [1] is given as 5 (0). Moreover, in assay [2], the “Evaluation (effect for cucumber anthracnose)” value is on record as 5 (0).

In the case of `Cc1ccc(-c2cc(CNC(=O)NC3CCCCC3)on2)cc1` [II-9, 1-{[3-(4-tolyl)-5-isoxazolyl]methyl}-3-cyclohexylurea], the “Evaluation (effect for rice blast)” value in assay [1] is on record as 5 (0). Also, the “Evaluation (effect for cucumber anthracnose)” value in assay [2] is recorded as 5 (0).

As for `Cc1ccc(-c2cc(CNC(=O)NC3CCCC3)on2)cc1` [II-10, 3-[3-(4-tolyl)-5-isoxazolyl]methyl-1-cyclopentylurea], the “Evaluation (effect for rice blast)” value in assay [1] was 4 (1˜5). The “Evaluation (effect for cucumber anthracnose)” value in assay [2] was 5 (0).

As to `CN(C(=O)NCc1cc(-c2ccccc2)no1)c1ccccc1` [II-12, 3-[(3-phenyl-5-isoxazolyl]methyl]-1-methyl-1-phenyl urea], the “Evaluation (effect for rice blast)” value in assay [1] is 4 (1˜5). The “Evaluation (effect for cucumber anthracnose)” value in assay [2] is recorded as 4 (1˜5).

On to `O=C(NCc1cc(Cc2ccccc2)no1)NC1CCCCC1` [II-13, 1-[(3-benzyl-5-isoxazolyl)methyl]-3-cyclohexylurea], for which, in assay [1], the “Evaluation (effect for rice blast)” value was 5 (0). The “Evaluation (effect for cucumber anthracnose)” value in assay [2] was 5 (0).

For `O=C(NCc1cc(Cc2ccccc2)no1)NC1CCCC1` [II-14, 1-[(3-benzyl-5-isoxazolyl)methyl]-3-cyclopentylurea], in assay [1], the “Evaluation (effect for rice blast)” value is given as 4 (1˜5). Moreover, in assay [2], the “Evaluation (effect for cucumber anthracnose)” value is recorded as 5 (0).

Take `CC(C)c1cc(CNC(=O)NC2CCCCC2)on1` [II-15, 1-[(3-isopropyl-5-isoxazolyl)methyl]-3-cyclohexylurea]: the “Evaluation (effect for rice blast)” value in assay [1] is given as 3 (6˜10). For the same molecule, the “Evaluation (effect for cucumber anthracnose)” value in assay [2] was 4 (1˜5).

On to `O=C(NCc1cc(-c2ccccc2)no1)Nc1cccc(Cl)c1` [II-49, 1-[(3-phenyl-5-isoxazolyl)methyl]-3-(3-chlorophenyl)urea], for which the “Evaluation (effect for rice blast)” value in assay [1] is given as 4 (1˜5).

As for `O=C(NCc1cc(-c2ccccc2)no1)Nc1ccc(Cl)cc1` [II-50, 1-[(3-phenyl-5-isoxazolyl)methyl]-3-(4-chlorophenyl)urea], the “Evaluation (effect for rice blast)” value in assay [1] is 5 (0).

As for `O=C(NCc1cc(-c2ccccc2)no1)Nc1ccccn1` [II-99, 1-[(3-phenyl-5-isoxazolyl)methyl]-3-(2-pyridyl)urea], in assay [1], the “Evaluation (effect for rice blast)” value is reported as 3 (6˜10).

Take `CC(=O)Nc1ccc(-c2cc(CNC(=O)c3ccc(C)cc3)on2)cc1` [III-57, N-{[3-(4-acetamidophenyl)-5-isoxazolyl]methyl}-4-methylbenzamide]: in assay [1], the “Evaluation (effect for rice blast)” value was 2 (11˜20).

With `Cc1ccc(-c2cc(CNC(=O)N3CCCCC3)on2)cc1` [III-203], the “Evaluation (effect for rice blast)” value in assay [1] is 2 (11˜20).

In the case of `CC1C(Cl)(Cl)C1(C)C(=O)NCc1cc(-c2ccccc2)no1` (stereo not drawn) [III-212], the “Evaluation (effect for rice blast)” value in assay [1] is on record as 2 (11˜20).

With `CC(NC(=O)C1(C)C(C)C1(Cl)Cl)c1cc(-c2ccccc2)no1` (stereo not drawn) [III-213, N-[1-(3-phenyl-5-isoxazolyl)ethyl]-2,2-dichloro-1,3-dimethylcyclopropanecarboxamide], the “Evaluation (effect for rice blast)” value in assay [1] was 3 (6˜10).

For `CCc1ccc(C(=O)NCc2cc(Cc3ccccc3)no2)cc1` [IV-6, N-[(3-benzyl-5-isoxazolyl)methyl]-4-ethylbenzamide], the “Evaluation (effect for rice blast)” value in assay [1] is given as 5 (0).

As to `CS(=O)(=O)c1ccc(C(=O)NCc2cc(Cc3ccccc3)no2)cc1` [IV-8, N-[(3-benzyl-5-isoxazolyl)methyl]-4-methanesulfonylbenzamide], the “Evaluation (effect for rice blast)” value in assay [1] was 3 (6˜10).

Regarding `COc1ccc(C(=O)NCc2cc(COc3ccccc3C#N)no2)cc1` [IV-51, N-{[3-(2-cyanophenyl)oxymethyl-5-isoxazolyl]methyl}-4-methoxybenzamide], the “Evaluation (effect for rice blast)” value in assay [1] was 2 (11˜20).

For `COc1ccc(C(=O)NCc2cc(COc3cccnc3)no2)cc1` [IV-91, N-{[3-(3-pyridyl)oxymethyl-5-isoxazolyl]methyl}-4-methoxybenzamide], the “Evaluation (effect for rice blast)” value in assay [1] is recorded as 3 (6˜10).

Consider `COc1ccc(C(=O)NCc2cc(C(=O)c3ccccc3)no2)cc1` [IV-98, N-[(3-benzoyl-5-isoxazolyl)methyl]-4-methoxybenzamide], for which, in assay [1], the “Evaluation (effect for rice blast)” value is reported as 2 (11˜20).

`COc1ccc(C(=O)NCc2cc(C(=O)Nc3ccc(Cl)cc3)no2)cc1` [IV-106, N-{[3-(4-chlorophenyl)aminocarbonyl-5-isoxazolyl]methyl}-4-methoxybenzamide]: the “Evaluation (effect for rice blast)” value in assay [1] is reported as 2 (11˜20).
